Where two headings read alike, the source gives them in different places.
Legend:
recombinant D.RET6 = target: T1, recombinant D.RET6 (Dermacentor reticulatus, UniProt Q8WSK7); experiment: Competitive binding assay: unlabelled ligands displacing radioactive histamine from recombinant D.RET6; settings: graphically derived from competitive binding curve (Figure 15), read-out: IC50 of the unlabelled ligands in displacing the radioactive histamine from the binding site by 50%
T1 sequence (Q8WSK7 18-209): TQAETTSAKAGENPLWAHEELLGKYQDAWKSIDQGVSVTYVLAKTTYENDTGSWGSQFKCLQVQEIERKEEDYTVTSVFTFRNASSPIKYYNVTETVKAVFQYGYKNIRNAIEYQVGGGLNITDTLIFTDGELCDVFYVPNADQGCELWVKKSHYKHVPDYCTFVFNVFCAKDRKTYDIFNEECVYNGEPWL
Description: (§1) The recombinant D.RET6 was diluted with 1.5% γ-globulin (Sigma) and used in one set of experiments. Fifty microlitres of the protein solution were incubated with 50 µl of 1:2500 dilution of [2,5-^3H] histamine diHCl (1µCi/µl) solution (Amersham) at room temperature for at least 3 hours with or without increasing concentrations of unlabelled histamine. All the assays were carried out in a total volume of 200 µl. The incubations were terminated by adding 125 µl of PEG 8000 (36% w/v in PBS) and centrifuged in a microfuge at maximum speed for 12 minutes to collect the bound protein. The tubes were spun once more to remove all supernatant without disturbing the pellets. Subsequently, pellets were redissolved in PBS. Three millilitres of liquid scintillation cocktail (Beckman) were added and the radioactivity measured using a liquid scintillation counter (Wallac, 1217 Rackbeta).
In a second set of experiments, a competitive binding assay was used to compare three unlabelled competitor ligands (histamine, 1-methylhistamine and 3-methylhistamine).

[1] = target: recombinant D.RET6 (SEQ ID 4), Dermacentor reticulatus histamine-binding protein (Dermacentor reticulatus, UniProt Q8WSK7); experiment: biochemical
Description: as §1
To study the effect of serotonin on histamine binding activity, 10 µl of PBS (as a control experiment) or 10 µl serotonin (50 µM or 500 µM) were added to each 200 µl binding assay.
For data analysis, the ligand affinity constant was estimated from Scatchard plots as previously described by Hulme, 1992, Receptor-Ligand Interactions, IRL Press, Oxford). The nonlinear regression was used to fit the data (Motulsky, 1987, FASEB J, 1: 365-374) and two asymtotic straight lines were made as described elsewhere (Feldman, 1972, Analytical Biochem 48: 317).

[2] = target: Av-HBP (SEQ. ID. 6), semi-purified recombinant protein, Amblyomma variegatum; settings: read-out: equilibrium dissociation constant (Kd) for histamine; results not shown

## NCCc1c[nH]cn1 [histamine]
Recombinant D.RET6
  IC50: 133 nM
[1]; Kd, first (higher affinity) histamine binding site, final concentration of 2.38µM serotonin
  Kd: 1.1 nM
[1]; Kd, first (higher affinity) histamine binding site, no serotonin, approximate, from asymptotic lines of Scatchard plot
  Kd: ~60 nM
[1]; Kd, first (higher affinity) histamine binding site, with 23.8µM serotonin
  Kd: 1.3 nM
[1]; in the presence of serotonin versus no serotonin
  increase of binding affinity of D.RET6 for histamine: sixty-fold
[1]; read-out: Kd, second (lower affinity) histamine binding site, final concentration of 2.38µM serotonin
  Kd: 1000 nM
[1]; read-out: Kd, second (lower affinity) histamine binding site, no serotonin, approximate, from asymptotic lines of Scatchard plot
  Kd: ~2000 nM
[1]; read-out: Kd, second (lower affinity) histamine binding site, with 23.8µM serotonin
  Kd: 1000 nM
[2]
  Kd: ~7.3 nM

— patent EP1034273B1, “HISTAMINE AND SEROTONIN BINDING MOLECULES” (Evolutec Limited, priority 1997, dated 1999)
